The values below come from patent US12138246B2, “Treatments with nirogacestat” (SpringWorks Therapeutics, Inc., priority 2022, dated 2024).

A word on the CL/F: it is clearance divided by bioavailability, as obtained after extravascular dosing.

Structures can show the parent of a compound that is named as a salt.

In series [1] the test system is progressing desmoid tumors/aggressive fibromatosis (DT/AF). It is filed as in vivo. From the text:
A Phase 3, double-blind, placebo-controlled study is being conducted to determine the efficacy and safety of nirogacestat dihydrobromide in participants with progressing desmoid tumors. A Phase 1 solid tumor study provided preliminary efficacy (Messersmith, W., et al., “A Phase I, dose-finding study in patients with advanced solid malignancies of the oral γ-secretase inhibitor PF-03084014,” Clin. Cancer Res., 21:60-7 (2015)), including long-term durable responses and safety of nirogacestat in desmoid participants (Villalobos, V. M., et al., “Long-Term Follow-Up of Desmoid Fibromatosis Treated with PF-03084014, an Oral Gamma Secretase Inhibitor, Ann. Surg. Oncol., 25:768-75 (2018)). These encouraging results lead to a Phase 2 study in participants with progressing desmoid tumors (Kummar, S., et al., “Clinical Activity of the γ-Secretase Inhibitor PF-03084014 in Adults with Desmoid Tumors (Aggressive Fibromatosis), J. Clin. Oncol., 35:1561-69 (2017)). […] Importantly, participants in the responder group had failed previous systemic therapies (imatinib or sorafenib) indicating a need for alterative therapeutic options for this patient population.
Overall Design: The Phase 3 study will be a multi-center, randomized, double-blind, placebo-controlled, event-driven to compare the efficacy, safety, and tolerability of nirogacestat and placebo in adult participants with progressing DT/AF. This study will consist of 2 phases, a double-blind and an optional open-label extension (OLE) phase.
Following disease progression (confirmed by central review using RECIST v1.1), or completion of the double-blind phase (once the required number of events have been observed and the primary PFS analysis has been completed), participants' treatment assignment will be unblinded, and if eligible, participants will have the option to enroll in the optional OLE phase.
• 1. Participant has DT/AF that has progressed by ≥20% as measured by RECIST v1.1 within the 12-month period prior to first dose of study treatment. • 2. Participant has: • a. Newly diagnosed, measurable progressing DT/AF that is not amenable to surgical resection or radiation therapy; • OR • b. Recurrent, progressing DT/AF following CR to initial therapy; • OR • c. Preexisting DT/AF and has previously received therapy and the residual tumor has progressed. • 3. Participant agrees to provide archival or new tumor tissue for confirmation of disease. • 4. If participant was previously treated with an investigational therapy for treatment of DT/AF, participant must have completed prior therapy at least 28 days prior to signing informed consent. All toxicities from prior therapy must resolve to ≤Grade 1 or baseline. • 5. Participants who are receiving nonsteroidal anti-inflammatory drugs (NSAIDs) as treatment for conditions other than DT/AF must be receiving them prior to the observed progression (inclusion criteria 1) for: • a. Chronic scheduled daily use (defined as stable for 28 days prior to signing informed consent); or • b. Occasional use (defined as ≤3 days per week) for the treatment of pain or as an anti-inflammatory in licensed conditions such as headache, arthritis, etc. • c. Participant has an Eastern Cooperative Oncology Group (ECOG) performance status ≤2 at screening. • 6. Participant has adequate organ and bone marrow function as defined by the following Screening laboratory values: • a. Absolute neutrophil count ≥1500/μL; • b. Platelets ≥100×10^3/μL; • c. Hemoglobin ≥9 g/dL; • d. Total bilirubin ≤1.5× upper limit of normal (ULN) (isolated bilirubin >1.5×ULN is acceptable if bilirubin is fractionated and direct bilirubin <35%); • e. Aspartate aminotransferase (AST) (serum glutamic oxaloacetic transaminase)/alanine aminotransferase (ALT) (serum glutamic pyruvate transaminase)≤2×ULN; and • f. […] Participant can swallow tablets and has no gastrointestinal conditions affecting absorption. […]

Series [2] has as its system progressing desmoid tumors. As to conditions: Phase 2, participants with progressing desmoid tumors; cited from earlier work.
Series [3] in a line: Pharmacokinetic parameters for single oral doses. The series is classed as in vivo, human.
The mark [4] stands for this setting: intent-to-treat population, n = 70.
The mark [5] stands for this setting: Min, COHORT 1: 150 mg (3 × 50 mg), Period 1.

As to `CCC[C@H](N[C@H]1CCc2cc(F)cc(F)c2C1)C(=O)Nc1cn(C(C)(C)CNCC(C)(C)C)cn1` (single isomer, unassigned) [nirogacestat], in series [1] (in vivo), the “most frequent adverse reactions requiring a dose reduction or interruption” value was “diarrhea, rash maculo-papular, hypophosphatemia, stomatitis, folliculitis, and fatigue”. In series [1] (setting [4]), the “Best overall response, n (%): Complete response” value is reported as 5 (7) n (%); the “Best overall response, n (%): Not evaluable” value is reported as 4 (6) n (%); the “Best overall response, n (%): Partial response” value was 24 (34) n (%); the “Best overall response, n (%): Progressive disease” value was 1 (1) n (%). Further, in series [1] (setting [4]), the “Best overall response, n (%): Stable disease” value was 35 (50) n (%); the “Disease control rate, n (%)” value is listed as 64 (91) n (%); the “Time to response, months, median (range)” value is listed as 5.6 (2.6, 19.4) months. In addition, the “progression-free survival (PFS), hazard ratio (HR)” value in series [1] (nirogacestat over placebo, 150 mg twice daily, p<0.001) came to 0.29. In addition, in series [2], the “progression while on therapy” value is reported as “no participants progressing while on therapy”.
In the case of `CCC[C@H](N[C@H]1CCc2cc(F)cc(F)c2C1)C(=O)Nc1cn(C(C)(C)CNCC(C)(C)C)cn1` [nirogacestat dihydrobromide], the CL/F worked out at 82.0 L/h in series [3] (Max, COHORT 1: 150 mg (1 × 150 mg), Period 2); 660 L/h in series [3] (Max, COHORT 3: 50 mg, Period 1); 57.0 L/h in series [3] (Median, COHORT 1: 150 mg (3 × 50 mg), Period 1). This molecule yielded a Half-life in series [3] (Max, COHORT 1: 150 mg (3 × 50 mg), Period 1) of 32.0 h. In series [3] (setting [5]), this molecule showed an AUCinf of 2160 ng·h/mL. The molecule also had an AUClast in series [3] (setting [5]) of 2080 ng·h/mL.
